Calls of active or inactive are those of the source.
Assays:
[1] = target: T1, Glucocorticoid receptor (Homo sapiens) (UniProt P04150); settings: MDA-kb2
T1 sequence (whole entry): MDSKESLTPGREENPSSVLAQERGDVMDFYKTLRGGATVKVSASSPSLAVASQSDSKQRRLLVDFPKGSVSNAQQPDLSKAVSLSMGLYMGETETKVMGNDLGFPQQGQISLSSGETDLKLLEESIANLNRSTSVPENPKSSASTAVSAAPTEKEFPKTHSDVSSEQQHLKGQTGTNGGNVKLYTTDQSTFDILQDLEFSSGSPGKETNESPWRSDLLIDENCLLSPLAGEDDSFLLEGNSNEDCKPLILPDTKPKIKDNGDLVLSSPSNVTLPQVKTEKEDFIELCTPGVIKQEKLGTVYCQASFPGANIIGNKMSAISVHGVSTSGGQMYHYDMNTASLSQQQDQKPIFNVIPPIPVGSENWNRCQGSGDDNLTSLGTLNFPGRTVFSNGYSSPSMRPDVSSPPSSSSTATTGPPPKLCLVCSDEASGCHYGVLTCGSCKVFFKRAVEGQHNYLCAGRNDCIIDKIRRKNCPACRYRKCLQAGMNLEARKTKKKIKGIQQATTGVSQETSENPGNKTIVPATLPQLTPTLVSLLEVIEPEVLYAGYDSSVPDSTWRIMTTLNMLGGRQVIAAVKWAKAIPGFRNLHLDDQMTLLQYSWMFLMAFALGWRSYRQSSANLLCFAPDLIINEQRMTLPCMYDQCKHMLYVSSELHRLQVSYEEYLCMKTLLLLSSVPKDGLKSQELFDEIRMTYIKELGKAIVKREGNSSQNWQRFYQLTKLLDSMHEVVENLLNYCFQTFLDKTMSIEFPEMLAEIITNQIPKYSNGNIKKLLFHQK

[2] = target: T2, Androgen receptor (Homo sapiens) (UniProt P10275); settings: MDA-kb2
T2 sequence (whole entry): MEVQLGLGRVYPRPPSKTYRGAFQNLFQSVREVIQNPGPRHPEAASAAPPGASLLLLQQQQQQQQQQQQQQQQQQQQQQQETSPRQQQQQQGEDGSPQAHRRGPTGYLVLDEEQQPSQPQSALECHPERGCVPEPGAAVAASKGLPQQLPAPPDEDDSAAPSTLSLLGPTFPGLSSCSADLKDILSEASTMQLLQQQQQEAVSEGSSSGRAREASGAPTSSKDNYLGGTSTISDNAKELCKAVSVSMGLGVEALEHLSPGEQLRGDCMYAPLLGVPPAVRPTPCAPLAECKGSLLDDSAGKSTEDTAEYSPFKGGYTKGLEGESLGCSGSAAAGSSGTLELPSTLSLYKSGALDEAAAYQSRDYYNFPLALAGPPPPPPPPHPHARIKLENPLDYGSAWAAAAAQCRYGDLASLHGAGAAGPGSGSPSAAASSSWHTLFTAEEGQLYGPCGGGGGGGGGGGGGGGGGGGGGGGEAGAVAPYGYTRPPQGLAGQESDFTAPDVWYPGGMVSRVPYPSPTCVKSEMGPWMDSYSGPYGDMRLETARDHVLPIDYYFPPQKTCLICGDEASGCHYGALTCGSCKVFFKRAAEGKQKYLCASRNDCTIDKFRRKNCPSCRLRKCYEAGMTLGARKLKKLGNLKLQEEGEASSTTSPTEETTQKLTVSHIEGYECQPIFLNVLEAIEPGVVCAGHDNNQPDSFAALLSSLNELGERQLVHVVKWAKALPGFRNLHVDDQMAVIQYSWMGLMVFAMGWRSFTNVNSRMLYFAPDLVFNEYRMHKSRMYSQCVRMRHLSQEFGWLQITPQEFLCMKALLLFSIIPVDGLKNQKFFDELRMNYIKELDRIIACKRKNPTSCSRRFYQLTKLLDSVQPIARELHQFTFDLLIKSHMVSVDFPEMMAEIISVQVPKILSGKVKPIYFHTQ
Description: Agonist activity at androgen receptor in human MDA-kb2 cells assessed as stimulation of luciferase activity by luciferase reporter gene assay

[3] = target: T1, Glucocorticoid receptor (Homo sapiens); settings: MDA-kb2; remark: listed apart in the source
Description: Agonist activity at glucocorticoid receptor in human MDA-kb2 cells assessed as stimulation of luciferase activity at 100 uM by luciferase reporter gene assay

[4] = target: T2, Androgen receptor (Homo sapiens); settings: MDA-kb2; remark: listed apart in the source
Description: Agonist activity at androgen receptor in human MDA-kb2 cells assessed as stimulation of luciferase activity at 100 uM by luciferase reporter gene assay

Androgen receptor [5] = target: T3, Androgen receptor (Homo sapiens, UniProt P10275); experiment: Antagonist activity at androgen receptor in human MDA-kb2 cells assessed as inhibition of DHT-induced luciferase activity at 100 uM by luciferase reporter gene assay; type: functional, cell-based
T3 sequence (P10275 whole entry): T2 sequence (whole entry)

Androgen receptor [6] = target: T3, Androgen receptor; experiment: Antagonist activity at androgen receptor in human MDA-kb2 cells assessed as inhibition of DHT-induced luciferase activity by luciferase reporter gene assay
[7] = target: T1, Glucocorticoid receptor (Homo sapiens); experiment: Agonist activity at glucocorticoid receptor in human MDA-kb2 cells assessed as stimulation of luciferase activity by luciferase reporter gene assay in presence of glucocorticoid receptor agonist Dex; type: functional, cell-based
[8] = target: T2, Androgen receptor (Homo sapiens); experiment: Ratio of compound EC150 to Dex EC150 for androgen receptor in human MDA-kb2 cells; type: cell-based
[9] = target: T2, Androgen receptor (Homo sapiens); experiment: Ratio of compound EC150 to DHT EC150 for androgen receptor in human MDA-kb2 cells; type: cell-based
[10] = target: T1, Glucocorticoid receptor (Homo sapiens); experiment: Ratio of compound EC150 to DHT EC150 glucocorticoid receptor in human MDA-kb2 cells; type: cell-based
[11] = target: T1, Glucocorticoid receptor (Homo sapiens); experiment: Ratio of compound EC150 to Dex EC150 for glucocorticoid receptor in human MDA-kb2 cells; type: cell-based
[12] = target: T1, Glucocorticoid receptor (Homo sapiens); experiment: Agonist activity at glucocorticoid receptor in human MDA-kb2 cells assessed as stimulation of luciferase activity at 0.03 mM by luciferase reporter gene assay in presence of androgen receptor agonist DHT; type: functional, cell-based
[13] = target: T1, Glucocorticoid receptor (Homo sapiens); experiment: Agonist activity at glucocorticoid receptor in human MDA-kb2 cells assessed as stimulation of luciferase activity by luciferase reporter gene assay in presence of androgen receptor agonist DHT; type: functional, cell-based

For `COc1ccc2c(=O)cc(-c3ccccc3)oc2c1`, the EC150 [1] was 21.9 µM and the EC150 [2] was 21.9 µM.

`O=c1c(O)c(-c2ccccc2)oc2cc(O)cc(O)c12` gave an EC150 [1] of 633 µM and an EC150 [2] of 633 µM.

`COc1ccc2c(c1)OC(c1ccccc1)CC2=O` (stereo not drawn) was tested, and the EC150 [3] was “inactive” and the EC150 [4] was “inactive”.

With `O=c1c(-c2ccc(O)cc2)coc2cc(O)ccc12` [DAIDZEIN] the “AR antagonist activity at 100 uM (active/inactive)” value (Androgen receptor [5]) was “Not Active”, the EC150 [1] was 10.1 µM and the EC150 [2] was 10.1 µM.

For `O=C1CC(c2ccccc2)Oc2ccccc21` (stereo not drawn) [FLAVANONE], the IC50 (Androgen receptor [6]) was 20 µM, the EC150 [1] was 380 µM and the EC150 [2] was 380 µM.

With `O=c1cc(-c2ccccc2)oc2cc(O)c(O)c(O)c12` the Activity [7] was “Active”, the EC150 [1] was 18.9 µM and the EC150 [2] was 18.9 µM.

In the case of `O=c1c(O)c(-c2ccc(O)c(O)c2)oc2cc(O)ccc12`, the EC150 [3] is reported as “inactive” and the EC150 [4] is reported as “inactive”.

`C[C@]12CCC(=O)C[C@@H]1CC[C@@H]1[C@@H]2CC[C@]2(C)[C@@H](O)CC[C@@H]12` gave an EC150 [1] of 0.0005 µM.

`COc1ccc(-c2cc(=O)c3c(O)cc(O)cc3o2)cc1` was tested, and the EC150 [1] was 2.1 µM and the EC150 [2] was 2.1 µM.

`COc1cccc2oc(-c3ccccc3)cc(=O)c12` showed an IC50 (Androgen receptor [6]) of 8.7 µM, an EC150 [1] of 5.5 µM and an EC150 [2] of 5.5 µM.

For `O=C1c2ccc(O)cc2OC(c2ccc(O)c(O)c2)C1O` (stereo not drawn), the EC150 [3] was “inactive” and the EC150 [4] was “inactive”.

Work on `Cc1ccc2oc(-c3ccccc3)cc(=O)c2c1` yielded an EC150 [1] of 3.6 µM and an EC150 [2] of 3.6 µM.

In the case of `O=c1cc(-c2ccc(O)c(O)c2)oc2cc(O)cc(O)c12`, the EC150 [1] is reported as 18 µM and the EC150 [2] is reported as 18 µM.

For `O=c1c(-c2ccc(O)cc2)coc2cc(O)cc(O)c12` [GENISTEIN], the Ratio [8] was 23, the IC50 (Androgen receptor [6]) was 1300 µM and the Ratio [9] was 10000. The Ratio [10] was 10000, the EC150 [1] was 4.4 µM and the EC150 [2] was 4.4 µM. It also gave a Ratio [11] of 23.

With `O=c1cc(-c2ccccc2)oc2cccc(O)c12` the EC150 [1] was 6 µM and the EC150 [2] was 6 µM.

`O=C1CC(c2ccccc2)Oc2ccc(O)cc21` (stereo not drawn) was tested, and the EC150 [3] was “inactive”, the IC50 (Androgen receptor [6]) was 3.3 µM and the EC150 [4] was “inactive”.

For `COc1ccc2oc(-c3ccccc3)cc(=O)c2c1`, the Ratio [8] was 3.6, the Ratio [9] was 1400 and the Ratio [10] was 1400. The EC150 [1] was 0.7 µM, the EC150 [2] was 0.7 µM and the Ratio [11] was 3.6.

`O=c1cc(-c2ccccc2)oc2ccccc12` [FLAVONE] gave an IC50 (Androgen receptor [6]) of 5.9 µM, an IC50 (Androgen receptor [6]; mda-kb2) of 5.9 µM and an EC150 [1] of 26.1 µM. For the same compound, the EC150 [2] was 26.1 µM.

`O=c1cc(-c2ccccc2)oc2ccc(O)cc12` [6-HYDROXYFLAVONE] was tested, and the “AR antagonist activity at 100 uM (active/inactive)” value (Androgen receptor [5]) was “Not Active”, the EC150 [7] was 4.1 µM and the EC150 [1] was 7.1 µM. For the same compound, the Activity [12] was “inactive” and the EC150 [2] was 7.1 µM.

For `COc1ccc2c(c1)C(=O)CC(c1ccccc1)O2` (stereo not drawn), the IC50 (Androgen receptor [6]) was 39.5 µM and the EC150 [1] was 4.08 µM.

Work on `O=c1cc(-c2ccccc2)oc2ccc(Cl)cc12` yielded an EC150 [1] of 12.6 µM and an EC150 [2] of 12.6 µM.

`COc1cc(O)c2c(=O)c(-c3ccc(O)cc3)coc2c1` [PRUNETIN] was tested, and the “AR antagonist activity at 100 uM (active/inactive)” value (Androgen receptor [5]) was “Not Active”, the EC150 [1] was 3.2 µM and the EC150 [2] was 3.2 µM.

For `O=c1cc(-c2ccccc2)oc2cc(O)ccc12`, the EC150 [1] was 3.1 µM and the EC150 [2] was 3.1 µM.

With `O=C1C[C@@H](c2ccc(O)cc2)Oc2cc(O)cc(O)c21` the EC150 [3] was “inactive” and the EC150 [4] was “inactive”.

With `O=c1c(O)c(-c2ccccc2)oc2ccc(O)cc12` the Activity [7] was “Active” and the EC150 [1] was 1.54 µM.

With `O=c1c(O)c(-c2ccccc2)oc2ccccc12` [FLAVONOL] the EC150 [3] was “inactive”, the IC50 (Androgen receptor [6]) was 23.5 µM and the EC150 [4] was “inactive”.

In the case of `O=c1cc(-c2ccccc2)oc2cc(O)cc(O)c12` [CHRYSIN], the “AR antagonist activity at 100 uM (active/inactive)” value (Androgen receptor [5]) is reported as “Active”, the EC150 [1] is reported as 1.5 µM and the EC150 [2] is reported as 1.5 µM. The Activity [13] was “Active”.

`COc1ccc2oc(-c3ccccc3)c(O)c(=O)c2c1` showed an EC150 [1] of 10.3 µM and an EC150 [2] of 10.3 µM.
